Assay results taken from patent publication US10822339B2, “Pyrrolopyrimidine five-membered azacyclic derivative and application thereof” (HANGZHOU HUADONG MEDICINE GROUP BIOPHARMACEUTICAL CO. LTD, priority 2016, dated 2020).
Like-named read-outs stand apart in the source and are kept apart here.

How the values were obtained:
[1] = Toxic side effects experiment, 14 days repeated dosing; settings: for toxic side effects: rat, in vivo; for organ tissues, blood biochemical parameters versus vehicle control group: once daily 30 mg/kg/day for 14 days
Method: The toxic side effects of the compounds of the present invention (Ia and Ib) were studied. The rats were administered once daily at 30 mg/kg/day for 14 days consecutively.

JAK2 = JAK2 (Homo sapiens, UniProt O60674); assay: Enzyme activity inhibition, Caliper Mobility Shift Assay; format: biochemical; settings: for IC50: read-out: Kinase inhibitory activity (IC50, nM) JAK2
Chain of JAK2 (O60674 whole entry): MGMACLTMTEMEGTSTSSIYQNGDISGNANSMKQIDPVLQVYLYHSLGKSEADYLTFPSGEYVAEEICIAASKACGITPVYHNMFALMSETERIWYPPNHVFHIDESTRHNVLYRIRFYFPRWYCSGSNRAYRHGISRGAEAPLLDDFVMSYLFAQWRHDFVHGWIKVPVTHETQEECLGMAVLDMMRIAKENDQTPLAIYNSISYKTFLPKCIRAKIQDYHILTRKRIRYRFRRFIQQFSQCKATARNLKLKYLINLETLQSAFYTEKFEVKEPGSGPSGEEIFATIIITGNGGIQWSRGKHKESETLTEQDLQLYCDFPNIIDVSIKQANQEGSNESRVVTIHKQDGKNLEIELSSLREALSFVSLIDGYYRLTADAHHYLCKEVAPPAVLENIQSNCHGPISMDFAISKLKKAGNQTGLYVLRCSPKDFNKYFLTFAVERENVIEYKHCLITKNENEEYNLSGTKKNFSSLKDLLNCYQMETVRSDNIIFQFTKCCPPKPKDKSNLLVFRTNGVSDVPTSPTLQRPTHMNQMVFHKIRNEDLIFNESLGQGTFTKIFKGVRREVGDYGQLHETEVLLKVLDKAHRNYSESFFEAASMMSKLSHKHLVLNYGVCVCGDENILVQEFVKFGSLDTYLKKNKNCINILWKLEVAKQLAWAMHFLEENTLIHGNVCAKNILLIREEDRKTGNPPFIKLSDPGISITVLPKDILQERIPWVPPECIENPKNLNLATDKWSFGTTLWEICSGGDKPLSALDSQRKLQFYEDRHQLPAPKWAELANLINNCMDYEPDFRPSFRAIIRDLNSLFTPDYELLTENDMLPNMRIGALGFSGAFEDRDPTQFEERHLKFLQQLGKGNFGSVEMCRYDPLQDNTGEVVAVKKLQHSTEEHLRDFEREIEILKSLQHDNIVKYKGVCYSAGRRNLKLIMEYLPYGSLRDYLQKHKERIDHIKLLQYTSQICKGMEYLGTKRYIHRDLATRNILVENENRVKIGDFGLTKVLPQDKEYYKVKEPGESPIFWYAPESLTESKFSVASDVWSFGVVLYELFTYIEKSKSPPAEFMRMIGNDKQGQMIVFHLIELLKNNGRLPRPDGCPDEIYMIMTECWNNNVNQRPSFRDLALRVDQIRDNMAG
Method: (§1) The semi-inhibitory concentration IC50 of the compounds (the concentration of the compounds required to inhibit enzyme activity to 50%) is determined by the immobilized enzyme mixed with a specific substrate and different concentrations of the test compounds. The determination method used was a Caliper Mobility Shift Assay. The kinases determined were JAK1, JAK2, JAK3 and TYK2. The standard reference compound used was staurosporine.

JAK3 = target: T1, JAK3 (Homo sapiens, UniProt P52333); assay: as above; format: biochemical; settings: read-out: Kinase inhibitory activity (IC50, nM) JAK3
T1 sequence (P52333 1-1124): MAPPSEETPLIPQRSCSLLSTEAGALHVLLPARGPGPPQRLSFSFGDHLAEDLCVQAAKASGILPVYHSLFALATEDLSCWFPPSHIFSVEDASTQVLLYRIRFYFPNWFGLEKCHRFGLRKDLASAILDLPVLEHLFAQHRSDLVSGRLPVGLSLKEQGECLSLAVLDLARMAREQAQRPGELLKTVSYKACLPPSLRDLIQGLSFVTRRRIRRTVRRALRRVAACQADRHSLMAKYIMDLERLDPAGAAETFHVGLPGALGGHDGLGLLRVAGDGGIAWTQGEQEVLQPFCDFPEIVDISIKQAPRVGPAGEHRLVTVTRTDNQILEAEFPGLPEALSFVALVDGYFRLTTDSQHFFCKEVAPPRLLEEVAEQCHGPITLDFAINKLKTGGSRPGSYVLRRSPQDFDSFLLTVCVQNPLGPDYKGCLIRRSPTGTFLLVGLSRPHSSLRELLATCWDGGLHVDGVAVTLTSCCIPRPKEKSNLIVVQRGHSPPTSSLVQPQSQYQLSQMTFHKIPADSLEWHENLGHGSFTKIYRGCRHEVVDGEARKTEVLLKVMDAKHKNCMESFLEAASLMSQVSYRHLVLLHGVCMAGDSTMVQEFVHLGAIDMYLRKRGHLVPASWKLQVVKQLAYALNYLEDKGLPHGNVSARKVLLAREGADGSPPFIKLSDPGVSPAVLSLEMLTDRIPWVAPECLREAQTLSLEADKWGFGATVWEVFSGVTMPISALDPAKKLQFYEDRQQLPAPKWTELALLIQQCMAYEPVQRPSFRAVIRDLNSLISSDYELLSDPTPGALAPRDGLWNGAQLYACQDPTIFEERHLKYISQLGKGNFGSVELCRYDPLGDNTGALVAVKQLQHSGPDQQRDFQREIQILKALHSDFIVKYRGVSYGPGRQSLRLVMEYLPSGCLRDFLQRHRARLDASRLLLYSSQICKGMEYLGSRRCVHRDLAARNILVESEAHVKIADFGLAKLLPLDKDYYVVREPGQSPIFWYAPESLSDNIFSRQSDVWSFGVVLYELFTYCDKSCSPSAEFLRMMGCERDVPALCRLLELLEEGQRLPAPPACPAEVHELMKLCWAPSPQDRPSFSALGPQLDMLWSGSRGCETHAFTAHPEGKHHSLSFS
Method: as §1

TYK2 = TYK2 (Homo sapiens, UniProt P29597); assay: as above; format: biochemical; settings: read-out: Kinase inhibitory activity (IC50, nM) TYK2
Chain of TYK2 (P29597 whole entry): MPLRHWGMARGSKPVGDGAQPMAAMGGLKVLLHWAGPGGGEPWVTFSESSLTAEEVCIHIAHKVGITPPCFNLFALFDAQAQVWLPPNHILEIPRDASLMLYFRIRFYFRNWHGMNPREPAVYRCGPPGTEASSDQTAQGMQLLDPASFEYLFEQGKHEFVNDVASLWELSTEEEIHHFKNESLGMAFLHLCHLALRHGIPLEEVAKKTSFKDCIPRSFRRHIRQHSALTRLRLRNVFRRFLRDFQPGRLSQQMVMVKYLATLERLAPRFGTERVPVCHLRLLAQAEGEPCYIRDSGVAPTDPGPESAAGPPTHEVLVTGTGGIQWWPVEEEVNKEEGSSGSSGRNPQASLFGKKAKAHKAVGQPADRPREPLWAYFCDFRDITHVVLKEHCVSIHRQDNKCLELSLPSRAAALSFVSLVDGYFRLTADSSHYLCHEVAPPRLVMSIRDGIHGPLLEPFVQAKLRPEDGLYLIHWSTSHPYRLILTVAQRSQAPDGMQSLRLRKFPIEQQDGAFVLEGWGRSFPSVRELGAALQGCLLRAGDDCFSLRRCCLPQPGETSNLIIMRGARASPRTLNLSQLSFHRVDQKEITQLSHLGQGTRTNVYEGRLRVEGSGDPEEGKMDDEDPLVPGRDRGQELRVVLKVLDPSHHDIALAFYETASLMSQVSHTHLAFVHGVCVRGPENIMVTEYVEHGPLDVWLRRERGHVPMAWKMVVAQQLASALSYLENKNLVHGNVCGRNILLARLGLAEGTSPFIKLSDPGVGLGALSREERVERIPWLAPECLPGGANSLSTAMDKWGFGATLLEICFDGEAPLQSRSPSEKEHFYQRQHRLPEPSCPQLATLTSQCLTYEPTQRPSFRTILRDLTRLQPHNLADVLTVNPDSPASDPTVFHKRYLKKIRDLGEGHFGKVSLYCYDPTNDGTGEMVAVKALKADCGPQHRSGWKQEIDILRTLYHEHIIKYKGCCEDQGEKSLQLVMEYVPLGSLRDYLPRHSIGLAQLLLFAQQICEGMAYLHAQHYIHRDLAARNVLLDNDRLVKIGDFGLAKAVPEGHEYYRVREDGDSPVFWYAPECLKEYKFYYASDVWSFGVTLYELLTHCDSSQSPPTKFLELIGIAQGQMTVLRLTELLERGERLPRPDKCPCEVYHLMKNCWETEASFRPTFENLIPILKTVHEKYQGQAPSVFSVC
Method: as §1

hERG = target: T2, hERG (Homo sapiens, UniProt Q12809); assay: Whole cell hERG potassium channel current blocking, automatic patch clamp; format: cell-based; settings: HEK293 cells expressing hERG stably
T2 construct: expressed in transfected cells; host or cells: HEK293
T2 sequence (Q12809 whole entry): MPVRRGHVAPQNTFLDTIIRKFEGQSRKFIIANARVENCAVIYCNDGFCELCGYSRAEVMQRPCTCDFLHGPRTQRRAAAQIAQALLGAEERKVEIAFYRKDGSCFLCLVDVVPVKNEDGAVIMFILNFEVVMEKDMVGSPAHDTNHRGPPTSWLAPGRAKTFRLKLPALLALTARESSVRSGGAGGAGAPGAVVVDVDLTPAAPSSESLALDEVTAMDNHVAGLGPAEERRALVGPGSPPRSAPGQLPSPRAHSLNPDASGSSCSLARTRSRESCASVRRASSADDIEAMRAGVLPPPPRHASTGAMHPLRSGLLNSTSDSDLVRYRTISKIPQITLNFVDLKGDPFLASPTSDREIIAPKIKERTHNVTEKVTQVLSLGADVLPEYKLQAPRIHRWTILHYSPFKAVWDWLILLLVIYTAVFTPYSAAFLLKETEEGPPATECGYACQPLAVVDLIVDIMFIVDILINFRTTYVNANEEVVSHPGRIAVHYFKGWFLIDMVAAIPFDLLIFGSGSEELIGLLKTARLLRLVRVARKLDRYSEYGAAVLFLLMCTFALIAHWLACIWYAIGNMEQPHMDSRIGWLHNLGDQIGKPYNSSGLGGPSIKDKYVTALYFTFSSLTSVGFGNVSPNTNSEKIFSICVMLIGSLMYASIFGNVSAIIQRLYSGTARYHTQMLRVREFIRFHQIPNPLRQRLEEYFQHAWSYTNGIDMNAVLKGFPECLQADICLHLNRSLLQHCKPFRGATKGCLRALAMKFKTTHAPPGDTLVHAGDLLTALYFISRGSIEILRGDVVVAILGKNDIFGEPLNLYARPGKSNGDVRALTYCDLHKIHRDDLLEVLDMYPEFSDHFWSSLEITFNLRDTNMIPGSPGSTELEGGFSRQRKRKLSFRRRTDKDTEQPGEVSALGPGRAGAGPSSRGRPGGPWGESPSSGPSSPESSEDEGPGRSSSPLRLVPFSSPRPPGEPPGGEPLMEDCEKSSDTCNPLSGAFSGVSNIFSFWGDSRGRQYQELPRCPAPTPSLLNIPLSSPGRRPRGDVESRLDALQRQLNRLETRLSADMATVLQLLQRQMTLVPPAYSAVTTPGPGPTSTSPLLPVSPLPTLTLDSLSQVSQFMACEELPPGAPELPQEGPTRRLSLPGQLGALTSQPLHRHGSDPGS
Description: Potassium channel current blocking percentage of whole cell hERG by the compounds of the present invention is studied using HEK293 cells expressing hERG stably and automatic patch clamp system detection method, the dose-effect relationship curve was obtained. The positive drug is Cisapride.

[2] = system: adjuvant-induced arthritis; assay: Rat adjuvant-induced arthritis efficacy model; format: in vivo; settings: oral; for animal clinical scores / paw volumes: dose groups of 10 mg/kg and 15 mg/kg; for animal body weight increase versus vehicle group: treatment groups, 14 days dosing
[3] = Pharmacokinetic experiments in Beagles; format: in vivo; settings: single administration; for half-life: read-out: Terminal t1/2 (converted)
Method: Experimental animals: Beagles, male and female; body weight: 7-9 kg;
Preparation of test samples: the compound (Ia) of the present invention was formulated into 2.5 mg/mL (for intravenous administration) and 2.0 mg/mL (for oral administration) for use. Routes of administration: oral/intravenous injection. Dosing capacity and frequency: 2 mL/kg (intravenous injection) or 5 mL/kg (oral), single administration.
Sample collection: blood was collected at the following time points: post-dose at 5 min, 15 min, 30 min, 1 hr, 2 hrs, 4 hrs, 8 hrs, and 24 hrs.
Sample analysis: The collected samples were tested using the LC-MS/MS method. The instrument model is API4000.
Pharmacokinetic data analysis: WinNolin was used to fit and calculate the obtained plasma concentration data according to the non-compartmental model method.

JAK1 = JAK1 (Homo sapiens, UniProt P23458); assay: Enzyme activity inhibition, Caliper Mobility Shift Assay; format: biochemical; settings: read-out: Kinase inhibitory activity (IC50, nM) JAK1
Chain of JAK1 (P23458 whole entry): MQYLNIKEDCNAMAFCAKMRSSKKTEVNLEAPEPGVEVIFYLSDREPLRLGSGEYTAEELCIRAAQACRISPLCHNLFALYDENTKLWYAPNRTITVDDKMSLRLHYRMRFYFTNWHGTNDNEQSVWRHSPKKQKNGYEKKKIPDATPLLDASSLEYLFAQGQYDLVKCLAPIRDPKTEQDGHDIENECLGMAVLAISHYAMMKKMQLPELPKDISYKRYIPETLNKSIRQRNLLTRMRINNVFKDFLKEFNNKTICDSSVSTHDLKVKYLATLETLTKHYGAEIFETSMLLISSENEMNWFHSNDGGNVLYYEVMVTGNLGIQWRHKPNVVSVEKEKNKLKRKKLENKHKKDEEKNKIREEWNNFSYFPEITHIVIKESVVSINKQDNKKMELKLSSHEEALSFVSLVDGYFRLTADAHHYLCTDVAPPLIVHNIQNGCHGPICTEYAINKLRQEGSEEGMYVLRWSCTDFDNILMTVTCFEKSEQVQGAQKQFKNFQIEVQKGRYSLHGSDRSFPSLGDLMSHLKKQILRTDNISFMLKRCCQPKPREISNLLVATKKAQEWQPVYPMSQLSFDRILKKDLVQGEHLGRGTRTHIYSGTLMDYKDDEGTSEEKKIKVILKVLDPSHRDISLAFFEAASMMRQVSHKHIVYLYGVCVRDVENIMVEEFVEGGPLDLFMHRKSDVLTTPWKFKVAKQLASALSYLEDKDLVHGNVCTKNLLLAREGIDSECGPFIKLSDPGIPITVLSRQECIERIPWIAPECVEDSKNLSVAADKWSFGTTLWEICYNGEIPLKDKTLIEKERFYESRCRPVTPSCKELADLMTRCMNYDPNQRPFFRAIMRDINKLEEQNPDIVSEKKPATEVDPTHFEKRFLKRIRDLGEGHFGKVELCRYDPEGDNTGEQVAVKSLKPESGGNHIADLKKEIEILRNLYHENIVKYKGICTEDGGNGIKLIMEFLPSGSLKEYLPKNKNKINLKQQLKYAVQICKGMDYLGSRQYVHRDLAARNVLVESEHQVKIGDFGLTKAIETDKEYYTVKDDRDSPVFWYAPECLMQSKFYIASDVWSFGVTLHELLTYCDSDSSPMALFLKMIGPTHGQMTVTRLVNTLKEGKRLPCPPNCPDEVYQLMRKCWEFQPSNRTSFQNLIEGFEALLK
Method: as §1

[4] = both sexes, beagle, dog, plasma, intravenous injection, 5 mg/kg
[5] = both sexes, beagle, dog, plasma, oral, 10 mg/kg

| SMILES | toxic side effects ([1]; 30 mg/kg/day) | inhibitory effects on JAK2 kinase (JAK2) | IC50 (JAK2) | IC50 (hERG) | animal clinical scores [2] | paw volumes [2] | animal body weight increase versus vehicle group [2] | organ tissues, blood biochemical parameters versus vehicle control group ([1]; rats) | also measured |
| --- | --- | --- | --- | --- | --- | --- | --- | --- | --- |
| CCS(=O)(=O)N1CC(CC#N)(n2cc(-c3ncnc4[nH]ccc34)cn2)C1 [Baricitinib, reference compound] | certain toxic side effects |  |  |  |  |  |  |  | thymus and spleen tissues size ([1]; rats, 30 mg/kg/day, same experiment): significantly reduced (a quarter of the normal size) |
| CCS(=O)(=O)N1CCC(CC#N)(n2cc(-c3ncnc4[nH]ccc34)cn2)CC1 [Compound of formula Ia] | no obvious toxic side effects | very strong inhibitory effects | 0.2 nM | > 30 µM | almost close to the normal group | almost close to the normal group | greater increases in animal body weight than that of the vehicle group | no significant difference | IC50 (JAK3): 27 nM; IC50 (TYK2): 7.3 nM; AUC(0-t) [3, 4]: 10900 ng·h/mL; MRT inf [3, 4]: 4.16 h; clearance [3, 4]: 7.5 mL/min/kg; half-life [3, 4]: 287 min; Vd ([3]; both sexes, beagle, dog, plasma, intravenous injection, 5 mg/kg, read-out: Vss): 1.85 L/kg; AUC(0-t) [3, 5]: 10600 ng·h/mL; Cmax [3, 5]: 2500 ng/mL; Tmax [3, 5]: 15 min; half-life [3, 5]: 347 min; F ([3]; oral, 10 mg/kg): 49.4% |
| CCS(=O)(=O)N1CCC(CC#N)(n2ccc(-c3ncnc4[nH]ccc34)c2)CC1 [Compound of formula Ib] | no obvious toxic side effects | very strong inhibitory effects | 0.4 nM | > 30 µM | almost close to the normal group | almost close to the normal group | greater increases in animal body weight than that of the vehicle group | no significant difference | IC50 (JAK1): 31 nM; selective inhibitory activities (JAK2; JAK2 versus the other kinases tested): good selective inhibitory activities |
